Here are results for 42 molecules from patent US6083944A, “Quinoline-containing α-ketoamide cysteine and serine protease inhibitors” (Cephalon, Inc., priority 1998, dated 2000).

The target of one assay is T1, Recombinant human calpain I (Homo sapiens, UniProt P07384).
T1 construct: made in house
T1 sequence (P07384 1-714): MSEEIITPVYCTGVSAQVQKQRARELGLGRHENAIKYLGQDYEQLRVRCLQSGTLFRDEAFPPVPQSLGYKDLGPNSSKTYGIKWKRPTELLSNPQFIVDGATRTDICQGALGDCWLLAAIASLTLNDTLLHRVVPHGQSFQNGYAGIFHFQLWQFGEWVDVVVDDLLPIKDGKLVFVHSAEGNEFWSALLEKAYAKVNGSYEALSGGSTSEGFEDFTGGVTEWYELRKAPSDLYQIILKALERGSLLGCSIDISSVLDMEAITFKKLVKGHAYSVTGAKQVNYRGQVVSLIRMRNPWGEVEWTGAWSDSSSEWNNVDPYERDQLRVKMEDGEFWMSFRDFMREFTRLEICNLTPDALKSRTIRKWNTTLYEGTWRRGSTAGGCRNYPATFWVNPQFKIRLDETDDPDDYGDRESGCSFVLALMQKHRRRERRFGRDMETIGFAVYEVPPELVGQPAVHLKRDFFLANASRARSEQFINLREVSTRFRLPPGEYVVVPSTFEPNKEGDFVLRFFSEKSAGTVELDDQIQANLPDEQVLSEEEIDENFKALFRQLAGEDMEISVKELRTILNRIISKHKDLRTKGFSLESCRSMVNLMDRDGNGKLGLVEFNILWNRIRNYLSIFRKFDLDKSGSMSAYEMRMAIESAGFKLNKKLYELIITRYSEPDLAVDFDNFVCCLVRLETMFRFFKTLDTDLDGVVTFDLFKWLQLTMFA
The experiment in a line: Inhibition of calpain I (Succ-Leu-Tyr-MNA hydrolysis). It is filed as biochemical. The note with it: Table 5; ** explained as 10,000 nM only in footnotes to Tables 2-4. How it is done:
To evaluate inhibitory activity, stock solutions (40 times concentrated) of each compound to be tested were prepared in 100% anhydrous DMSO and 5 μl of each inhibitor preparation was aliquoted into each of three wells of a 96-well plate. Recombinant human calpain I, prepared by the method of Meyer et al. (Biochem. J. 1996, 314: 511-519), was diluted into assay buffer (i.e., 50 mM Tris, 50 mM NaCl, 1 mM EDTA, 1 mM EGTA, and 5 mM β-mercaptoethanol, pH 7.5, including 0.2 mM Succ-Leu-Tyr-MNA), and 175 μl was aliquoted into the same wells containing the independent inhibitor stocks as well as to positive control wells containing 5 μl DMSO, but no compound. To start the reaction, 20 μl of 50 mM CaCl2 in assay buffer was added to all wells of the plate, excepting three, which were used as background signal baseline controls. Substrate hydrolysis was monitored every 5 minutes for a total of 30 minutes. Substrate hydrolysis in the absence of inhibitor was linear for up to 15 minutes.
Inhibition of calpain I activity was calculated as the percent decrease in the rate of substrate hydrolysis in the presence of inhibitor relative to the rate in its absence. Comparison between the inhibited and control rates was made within the linear range for substrate hydrolysis. The IC50 S of inhibitors (concentration yielding 50% inhibition) were determined from the percent decrease in rates of substrate hydrolysis in the presence of five to seven different concentrations of the test compound. The results were plotted as percent inhibition versus log inhibitor concentration, and the IC50 was calculated by fitting the data to the four-parameter logistic equation shown below using the program GraphPad Prism (GraphPad Software, Inc., San Diego, Calif.).
The parameters a, b, c, and d are defined as follows: a is % inhibition in the absence of inhibitor, b is the slope, c is the IC50, and d is the % inhibition at an infinite concentration of inhibitor.
In the case of `CCCC(NC(=O)c1cc(Cl)nc2ccccc12)C(=O)C(=O)NCCNS(=O)(=O)c1ccc([N+](=O)[O-])cc1` (stereo not drawn) [Example 150], the “Calpain I IC50 ** (value in parentheses: % inhibition)” value stood at 78%. The same measure, in the same setting: under `O=C(NCCNS(=O)(=O)c1ccccc1)C(=O)C(Cc1ccccc1)NC(=O)c1nc(-c2ccccc2)nc2ccccc12` (stereo not drawn) [Example 153] stands 95%.

Staying with this assay, now noted: Table 5; head prints no unit.
For the molecule `CCCCC(NC(=O)c1cc(Cl)nc2ccccc12)C(=O)C(=O)NCCNS(=O)(=O)c1ccc([N+](=O)[O-])cc1` (stereo not drawn) [Example 149], the IC50 was found to be 23 nM. With `CCCCC(NC(=O)c1cc(Cl)nc2ccccc12)C(=O)C(=O)NCCNS(=O)(=O)c1ccc(Cl)c(Cl)c1` (stereo not drawn) [Example 151], the IC50 stood at 217 nM.

As to `CCCC(NC(=O)c1cc(Cl)nc2ccccc12)C(=O)C(=O)NCCNS(=O)(=O)c1ccc(Cl)c(Cl)c1` (stereo not drawn) [Example 152], the IC50 amounted to 325 nM. Turning to `O=C(NCCNS(=O)(=O)c1ccc(-c2ccccn2)s1)C(=O)C(Cc1ccccc1)NC(=O)c1nc(-c2ccccc2)nc2ccccc12` (stereo not drawn) [Example 154], the IC50 is 83 nM. Same read-out and setting: under `CCCCC(NC(=O)c1cc(Cl)nc2ccccc12)C(=O)C(=O)NCCNS(=O)(=O)c1ccc(-c2ccccn2)s1` (stereo not drawn) [Example 155] stands 31 nM.

The same assay, now with this note: Tables 2-4; pH 7.5.
On to `O=C(NCCNS(=O)(=O)c1cccc2nsnc12)C(=O)C(Cc1ccccc1)NC(=O)c1cc(C#Cc2ccccc2)nc2ccccc12` (stereo not drawn) [Example 71], for which the IC50 worked out at 89 nM.

As to `O=C(NCCNS(=O)(=O)c1cccnc1)C(=O)[C@H](Cc1ccccc1)NC(=O)c1cc(C#Cc2ccccc2)nc2ccccc12` [Example 87], the IC50 came to 56 nM. On the same count and under the same terms, under `O=C(NCCNS(=O)(=O)c1cccc2cccnc12)C(=O)C(Cc1ccccc1)NC(=O)c1cc(C#Cc2ccccc2)nc2ccccc12` (stereo not drawn) [Example 89] stands 130 nM. Still for that read-out and setting: under `O=C(NCCNS(=O)(=O)c1cccs1)C(=O)C(Cc1ccccc1)NC(=O)c1cc(C#Cc2ccccc2)nc2ccccc12` (stereo not drawn) [Example 90] stands 76 nM; under `O=C(NCCNS(=O)(=O)C=Cc1ccccc1)C(=O)C(Cc1ccccc1)NC(=O)c1cc(C#Cc2ccccc2)nc2ccccc12` (stereo not drawn) [Example 91], 42 nM. The same measure, in the same setting: under `O=C(NCCNS(=O)(=O)Cc1ccccc1)C(=O)C(Cc1ccccc1)NC(=O)c1cc(C#Cc2ccccc2)nc2ccccc12` (stereo not drawn) [Example 92] stands 94 nM; under `CS(=O)(=O)NCCNC(=O)C(=O)C(Cc1ccccc1)NC(=O)c1cc(C#Cc2ccccc2)nc2ccccc12` (stereo not drawn) [Example 93], 180 nM.

With `CN(C)S(=O)(=O)NCCNC(=O)C(=O)C(Cc1ccccc1)NC(=O)c1cc(C#Cc2ccccc2)nc2ccccc12` (stereo not drawn) [Example 94], the IC50 was found to be 141 nM. Still for that read-out and setting: under `O=C(NCCNS(=O)(=O)c1ccccc1)C(=O)C(Cc1ccccc1)NC(=O)c1cc(C#Cc2ccccc2)nc2ccccc12` (stereo not drawn) [Example 95] stands 43 nM; under `O=C(NCCCNC(=O)C(=O)C(Cc1ccccc1)NC(=O)c1cc(C#Cc2ccccc2)nc2ccccc12)Nc1ccccc1` (stereo not drawn) [Example 98], 126 nM; under `CS(=O)(=O)NCCCNC(=O)C(=O)C(Cc1ccccc1)NC(=O)c1cc(C#Cc2ccccc2)nc2ccccc12` (stereo not drawn) [Example 99], 130 nM. Still for that read-out and setting: next, `O=C(NOCCNS(=O)(=O)c1ccccc1)C(=O)C(Cc1ccccc1)NC(=O)c1cc(C#Cc2ccccc2)nc2ccccc12` (stereo not drawn) [Example 105]: 128 nM.

Regarding `COC(=O)C(Cc1ccccc1)NC(=O)C(=O)C(Cc1ccccc1)NC(=O)c1cc(C#Cc2ccccc2)nc2ccccc12` (stereo not drawn) [Example 109], the IC50 stood at 655 nM. On the same count and under the same terms, under `CCCCNC(=O)C(=O)C(Cc1ccccc1)NC(=O)c1cc(C=Cc2ccccc2)nc2ccccc12` (stereo not drawn) [Example 130] stands 105 nM; under `O=C(NCCNS(=O)(=O)c1ccccc1)C(=O)C(Cc1ccccc1)NC(=O)c1cc(CCc2ccccc2)nc2ccccc12` (stereo not drawn) [Example 137], 16 nM.

In the case of `O=C(NCCNS(=O)(=O)c1ccc(-c2ccccn2)s1)C(=O)[C@H](Cc1ccccc1)NC(=O)c1cc(Cl)nc2ccccc12` [Example 144], the IC50 turned out to be 14 nM.

As to `O=C(NCCNS(=O)(=O)c1ccc(-c2ccccn2)s1)C(=O)C(Cc1ccccc1)NC(=O)c1cc(C2CC2)nc2ccccc12` (stereo not drawn) [Example 145], the IC50 is 71 nM. Consider `O=C(NCCNS(=O)(=O)c1ccc(-c2ccccn2)s1)C(=O)C(Cc1ccccc1)NC(=O)c1cc(-c2cccs2)nc2ccccc12` (stereo not drawn) [Example 146], for which the IC50 is 85 nM.

Take `O=C(NCCS(=O)(=O)Nc1ccccc1)C(=O)C(Cc1ccccc1)NC(=O)c1cc(Cl)nc2ccccc12` (stereo not drawn) [Example 147]: the half-inhibitory concentration (IC50) was found to be 81 nM.

Still in this assay, the particulars now being: Tables 2-4; values in parentheses; at 10,000 nM.
For `O=C(NCCNS(=O)(=O)c1cccc([N+](=O)[O-])c1)C(=O)C(Cc1ccccc1)NC(=O)c1cc(C#Cc2ccccc2)nc2ccccc12` (stereo not drawn) [Example 78], the inhibition at 10 µM came out at 88%.

For `CC(C)(C)OC(=O)NCCCNC(=O)C(=O)C(Cc1ccccc1)NC(=O)c1cc(C#Cc2ccccc2)nc2ccccc12` (stereo not drawn) [Example 97], the inhibition at 10 µM was 100%. Turning to `O=C(NCCCCCCNS(=O)(=O)c1cccc2c(Cl)cccc12)C(=O)C(Cc1ccccc1)NC(=O)c1cc(C#Cc2ccccc2)nc2ccccc12` (stereo not drawn) [Example 101], the inhibition at 10 µM was found to be 84%. Same read-out and setting: under `COC(=O)C(CCCCNC(=O)C(=O)C(Cc1ccccc1)NC(=O)c1cc(C#Cc2ccccc2)nc2ccccc12)NC(=O)OC(C)(C)C` (stereo not drawn) [Example 106] stands 97%; under `CC(C)(C)OC(=O)CCNC(=O)C(=O)C(Cc1ccccc1)NC(=O)c1cc(C#Cc2ccccc2)nc2ccccc12` (stereo not drawn) [Example 107], 93%. With `O=C(NCCNC(=O)[C@@H]1CCCN1S(=O)(=O)c1ccccc1)C(=O)C(Cc1ccccc1)NC(=O)c1cc(C#Cc2ccccc2)nc2ccccc12` (stereo partly drawn) [Example 108], the inhibition at 10 µM amounted to 94%. Same read-out and setting: under `CN(C)NC(=O)C(=O)C(Cc1ccccc1)NC(=O)c1cc(C#Cc2ccccc2)nc2ccccc12` (stereo not drawn) [Example 110] stands 43%; under `C=C(C)C(=O)OCCNC(=O)C(=O)C(Cc1ccccc1)NC(=O)c1cc(C#Cc2ccccc2)nc2ccccc12` (stereo not drawn) [Example 111], 95%; under `COCCNC(=O)C(=O)C(CC(C)C)NC(=O)c1cc(C#Cc2ccccc2)nc2ccccc12` (stereo not drawn) [Example 112], 95%. On the same count and under the same terms, under `COC(CNC(=O)C(=O)C(CC(C)C)NC(=O)c1cc(C#Cc2ccccc2)nc2ccccc12)OC` (stereo not drawn) [Example 113] stands 92%; under `CC(C)CC(NC(=O)c1cc(C#Cc2ccccc2)nc2ccccc12)C(=O)C(=O)NCCOCCO` (stereo not drawn) [Example 114], 93%; under `CC(C)CC(NC(=O)c1cc(C#Cc2ccccc2)nc2ccccc12)C(=O)C(=O)NCCNC(=O)OCc1ccccc1` (stereo not drawn) [Example 115], 100%. As to `CC(C)CC(NC(=O)c1cc(C#Cc2ccccc2)nc2ccccc12)C(=O)C(=O)NCCNC(=O)Nc1ccccc1` (stereo not drawn) [Example 116], the inhibition at 10 µM amounted to 89%.

With `CC(C)CC(NC(=O)c1cc(C#Cc2ccccc2)nc2ccccc12)C(=O)C(=O)NCCNS(=O)(=O)c1ccccc1` (stereo not drawn) [Example 117], the inhibition at 10 µM came to 82%. The same measure, in the same setting: next, `CC(C)CC(NC(=O)c1cc(C#Cc2ccccc2)nc2ccccc12)C(=O)C(=O)NCCCNS(=O)(=O)c1ccccc1` (stereo not drawn) [Example 119]: 80%; `O=C(NCCNS(=O)(=O)c1ccccc1)C(=O)C(Cc1ccccc1)NC(=O)c1cc(-c2cccnc2)nc2ccccc12` (stereo not drawn) [Example 136]: 99%.

As usually defined, the IC50 is the concentration needed to halve the response being measured. One may read the inhibition as the percentage by which the read-out fell short of the control.
